Reference: patent US6469196B2, “Dialkyl phenyl halide-substituted keto-enols for use as herbicides and pesticides” (Bayer Aktiengesellschaft, priority 1995, dated 2002)

Columns and labels:
Type in all cases: in vivo
[1] = system: mustard beetle larvae (Phaedon cochleariae); assay: Phaedon larvae test; settings: active compound concentration 0.1%; after 7 days; dipped cabbage leaves (Brassica oleracea)
Protocol: Phaedon larvae Test Solvent: 7 parts by weight of dimethylformamide Emulsifier: 1 part by weight of alkylaryl polyglycol ether To produce a suitable preparation of active compound, 1 part by weight of active compound is mixed with the stated amount of solvent and the stated amount of emulsifier, and the concentrate is diluted with water to the desired concentration. Cabbage leaves (Brassica oleracea) are treated by being dipped into the preparation of the active compound of the desired concentration and are infested with mustard beetle larvae (Phaedon cochleariae), while the leaves are still moist. […] 100% means that all the beetle larvae have been killed; 0% means that none of the beetle larvae have been killed.

[2] = system: caterpillars of the diamond-back moth (Plutella xylostella); assay: Plutella test; settings: active compound concentration 0.1%; after 7 days; dipped cabbage leaves (Brassica oleracea)
Protocol: (§1) Plutella Test Solvent: 7 parts by weight of dimethylformamide Emulsifier: 1 part by weight of alkylaryl polyglycol ether To produce a suitable preparation of active compound, 1 part by weight of active compound is mixed with the stated amount of solvent and the stated amount of emulsifier, and the concentrate is diluted with water to the desired concentration. Cabbage leaves (Brassica oleracea) are treated by being dipped into the preparation of the active compound of the desired concentration and are infested with caterpillars of the diamond-back moth (Plutella xylostella) while the leaves are still moist. After the specified period of time, the destruction in % is determined. 100% means that all the caterpillars have been killed; 0% means that none of the caterpillars have been killed.

[3] = system: green rice leafhopper (Nephotettix cincticeps); assay: Nephotettix test; settings: active compound concentration 0.1%; after 6 days; dipped rice seedlings (Oryza sativa)
Protocol: as §1, with “Nephotettix” for “Plutella”, “Rice seedlings (Oryza sativa)” for “Cabbage leaves (Brassica oleracea)”, “with” for “with caterpillars of”, “green rice leafhopper (Nephotettix cincticeps)” for “diamond-back moth (Plutella xylostella)”, “leafhoppers” for “caterpillars”

[4] = system: peach aphid (Myzus persicae); assay: Myzus test; settings: active compound concentration 0.1%; after 6 days; dipped infested cabbage leaves (Brassica oleracea)
Protocol: as §1, with “Myzus” for “Plutella”, “oleracea) which have been heavily infested with the peach aphid (Myzus persicae)” for “oleracea)”, “concentration.” for “concentration and are infested with caterpillars of the diamond-back moth (Plutella xylostella) while the leaves are still moist.”, “aphids” for “caterpillars”

[5] = system: common spider mite or two-spotted spider mite (Tetranychus urticae); assay: Tetranychus test (OP-resistant/dipping treatment); settings: active compound concentration 0.1%; after 13 days; dipped infested bean plants (Phaseolus vulgaris)
Protocol: Tetranychus Test (OP-resistant/dipping Treatment)
Solvent: 7 parts by weight of dimethylformamide
Emulsifier: 1 part by weight of alkylaryl polyglycol ether
To produce a suitable preparation of active compound, 1 part by weight of active compound is mixed with the stated amount of solvent and the stated amount of emulsifier, and the concentrate is diluted with water to the desired concentration.
Bean plants (Phaseolus vulgaris) which have been heavily infested with the common spider mite or two-spotted spider mite (Tetranychus urticae) in all stages of development are treated by being dipped into the preparation of the active compound of the desired concentration.
After the specified period of time, the destruction in % is determined. 100% means that all the spider mites have been killed; 0% means that none of the spider mites have been killed.

Cc1cc(C)c(C2=C(OC(=O)C(C)(C)C)C3(CCCCC3)OC2=O)c(Br)c1 [Example I-2-b-1]
100%: destruction in % [1] | destruction in % [2] | destruction in % [3]

Cc1cc(Br)cc(C)c1C1=C(O)C2(CCCC(C)C2)NC1=O (stereo not drawn) [Example I-1-a-1]
100%: destruction in % [1] | destruction in % [3]

Cc1cc(C)c(C2=C(O)C3(CCCCC3)OC2=O)c(Br)c1 [Example I-2-a-1]
100%: destruction in % [1] | destruction in % [3] | destruction in % [4] | action (destruction in %) [5]
